Measurements reported in patent publication US20240270821A1, “GIP/GLP1/GCG TRI-RECEPTOR AGONISTS AND USES THEREOF” (priority 2023, published 2024).
Where two headings read alike, the source gives them in different places. Starred links: 1 amine or outer side, 2 acyl side, 3 side chain; linkers in the order of their positions; H or OH if unused. Non-standard residues stand in square brackets, D forms with d. Groups on a side chain read outwards from the residue. No end group written: not given here. *: point of attachment. C20 diacid = O=C(O)CCCCCCCCCCCCCCCCCCC(=O)*; C18 diacid = O=C(O)CCCCCCCCCCCCCCCCC(=O)*; γGlu = O=C(O)[C@H](CCC(=O)[*:2])N[*:1]; αMe4Pal = C[C@](N)(Cc1ccncc1)C(=O)O; αMeY = C[C@](N)(Cc1ccc(O)cc1)C(=O)O; 4Pal = N[C@@H](Cc1ccncc1)C(=O)O; αMeL = CC(C)C[C@](C)(N)C(=O)O; Orn = NCCC[C@H](N)C(=O)O; Dap = NC[C@H](N)C(=O)O; AEEA = NCCOCCOCC(=O)O; Aib = CC(C)(N)C(=O)O

Experiments:
Type in all cases: cell-based
human GcgR = human GcgR (Homo sapiens, UniProt P47871); assay: Functional cAMP activity in the presence of 1% HSA
human GLP1-R = human GLP1-R (Homo sapiens, UniProt P43220); assay: GLP1-R internalization assay in HEK293 cells; settings: for Internalization % TOP: normalized to maximum concentration of GLP-1 (100%)
hGIPR [1] = target: T1, hGIPR (Homo sapiens, UniProt P48546); assay: Functional cAMP activation in the presence of 0.1% casein (no HSA);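 further: intracellular cAMP rise after 30 min at 37 °C read by HTRF against a standard curve, scaled between buffer alone (0%) and top control ligand concentration (100%), four-parameter fit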
T1 sequence (P48546 22-466): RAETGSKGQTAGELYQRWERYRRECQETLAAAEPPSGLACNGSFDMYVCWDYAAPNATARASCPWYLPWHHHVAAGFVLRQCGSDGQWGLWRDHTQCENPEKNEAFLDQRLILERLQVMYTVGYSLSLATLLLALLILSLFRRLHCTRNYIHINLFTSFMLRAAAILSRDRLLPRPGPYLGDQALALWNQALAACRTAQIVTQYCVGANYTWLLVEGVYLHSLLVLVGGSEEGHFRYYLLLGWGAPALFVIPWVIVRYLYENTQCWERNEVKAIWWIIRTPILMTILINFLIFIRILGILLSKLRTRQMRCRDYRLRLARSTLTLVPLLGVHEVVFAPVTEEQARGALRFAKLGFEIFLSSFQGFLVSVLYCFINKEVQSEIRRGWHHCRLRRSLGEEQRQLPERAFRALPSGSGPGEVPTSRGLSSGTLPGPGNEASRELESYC

hGIPR [2] = target: T1, hGIPR; assay: Functional cAMP activity in the presence of 1% HSA
hGcgR = hGcgR (Homo sapiens, UniProt P47871); assay: Functional cAMP activation in the presence of 0.1% casein (no HSA);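 further: intracellular cAMP rise after 30 min at 37 °C, read by HTRF against a cAMP standard curve, scaled from buffer only (0%) to maximal control ligand response (100%)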
hGLP-1R [3] = target: T2, hGLP-1R (Homo sapiens, UniProt P43220); assay: Functional cAMP activity in the presence of 1% HSA
hGLP-1R [4] = target: T2, hGLP-1R; assay: Functional cAMP activation in the presence of 0.1% casein (no HSA);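 further: intracellular cAMP rise after 30 min at 37 °C read by HTRF, normalized between buffer only (0%) and maximal control ligand (100%), four-parameter variable-slope fit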
Protocol: After a 30-minute incubation at 37° C., the resulting increase in intracellular cAMP is quantitatively determined using the CisBio CAMP Dynamic 2 HTRF Assay Kit (62AM4PEJ). Briefly, cAMP levels within the cell are detected by adding the cAMP-d2 conjugate in cell lysis buffer followed by the antibody anti-cAMP-Eu^3+-Cryptate, also in cell lysis buffer.
Intracellular cAMP levels are determined by extrapolation using a standard curve. Dose response curves of compounds are plotted as the percentage of stimulation normalized to minimum (buffer only) and maximum (maximum concentration of each control ligand) values and analyzed using a four parameter non-linear regression fit with a variable slope (Genedata Screener 13). EC50 is the concentration of compound causing half-maximal simulation in a dose response curve. Each relative EC50 value for the Geometric mean calculation is determined from a curve fitting.

[5] = HEK293 cells expressing SNAP-GLP-1R, read-out: GLP1R Internalization EC50
[6] = in the presence of 0.1% casein (no HSA), geometric mean, read-out: Relative cAMP EC50, hGIPR
[7] = in the presence of 0.1% casein (no HSA), geometric mean, read-out: Relative cAMP EC50, hGcgR
[8] = read-out: cAMP Rel EC50, hGLP-1R
[9] = in the presence of 0.1% casein (no HSA), geometric mean, read-out: Relative cAMP EC50, hGLP-1R

human GcgR, sequence (P47871 26-477): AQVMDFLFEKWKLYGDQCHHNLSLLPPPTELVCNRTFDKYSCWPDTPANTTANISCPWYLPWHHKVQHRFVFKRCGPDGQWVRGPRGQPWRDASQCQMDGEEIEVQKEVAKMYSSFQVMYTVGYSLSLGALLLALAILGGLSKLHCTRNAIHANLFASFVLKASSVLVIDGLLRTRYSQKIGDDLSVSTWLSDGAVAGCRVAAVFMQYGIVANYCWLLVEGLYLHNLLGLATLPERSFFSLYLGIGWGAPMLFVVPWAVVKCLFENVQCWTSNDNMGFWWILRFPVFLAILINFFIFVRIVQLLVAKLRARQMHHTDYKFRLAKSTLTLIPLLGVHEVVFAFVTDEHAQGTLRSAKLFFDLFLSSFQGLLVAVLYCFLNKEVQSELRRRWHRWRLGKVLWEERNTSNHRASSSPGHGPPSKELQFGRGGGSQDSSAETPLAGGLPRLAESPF
hGcgR, sequence (P47871 26-477): as above
T2 sequence (P43220 24-463): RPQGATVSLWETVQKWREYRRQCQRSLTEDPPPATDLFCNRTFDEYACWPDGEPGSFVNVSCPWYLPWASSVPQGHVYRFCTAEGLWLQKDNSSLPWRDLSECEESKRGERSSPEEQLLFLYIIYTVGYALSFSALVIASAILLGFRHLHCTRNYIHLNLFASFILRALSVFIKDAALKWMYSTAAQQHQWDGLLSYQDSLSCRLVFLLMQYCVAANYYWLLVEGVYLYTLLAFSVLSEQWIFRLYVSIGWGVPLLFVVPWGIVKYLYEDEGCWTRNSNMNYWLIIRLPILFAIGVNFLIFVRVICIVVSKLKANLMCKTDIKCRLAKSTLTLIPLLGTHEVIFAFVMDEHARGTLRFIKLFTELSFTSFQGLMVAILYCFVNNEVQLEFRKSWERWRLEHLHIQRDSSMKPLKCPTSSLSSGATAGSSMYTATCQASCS
human GLP1-R, sequence (P43220 24-463): as above

Row | Substance | EC50 (human GcgR; read-out: cAMP Rel EC50, hGcgR) [nM] | EC50 (human GLP1-R; [5]) [nM] | Internalization % TOP (human GLP1-R) [%] | EC50 (hGIPR [1]; [6]) [nM] | EC50 (hGIPR [2]; read-out: cAMP Rel EC50, hGIPR) [nM] | EC50 (hGcgR; [7]) [nM] | EC50 (hGLP-1R [3]; [8]) [nM] | EC50 (hGLP-1R [4]; [9]) [nM] | EC50 (human GcgR) [nM] | EC50 (human GLP1-R) [nM] | EC50 (hGIPR [1]) [nM] | EC50 (hGIPR [2]) [nM] | EC50 (hGcgR) [nM] | EC50 (hGLP-1R [3]) [nM] | EC50 (hGLP-1R [4]) [nM]
1 | Y[Aib]QGTFTSD[4Pal]SQ[αMeL]LD[Orn]K([γGlu-γGlu-C18 diacid])AQ[αMe4Pal]QFIE[αMeY]LIEGGPSSGEPPPSGSEE-NH2 [Example 1026] | 2080 | 47.4 | 80 | 0.308 | 61.3 | 6.32 | 299 | 1.77 |  |  |  |  |  |  | 
2 | H-Y[Aib]QGTFTSD[4Pal]SR[αMeL]LDKK([AEEA-γGlu-C18 diacid])AQ[Aib]AFIEYLLE[Aib]GPSSGAPPPSGE-NH2 [Example 114] | 1120 | 47.2 | 62.9 | 0.14 | 19.6 | 5.63 | 1370 | 6.38 |  |  |  |  |  |  | 
3 | H-Y[Aib]QGTFTSDFS[Orn][αMeL]LDKK([AEEA-γGlu-C18 diacid])AQ[Aib]AFIEYLLAGGPSSGAPPPEGE-NH2 [Example 99] | 1130 | 56.9 | 46.1 | 0.174 | 29.5 | 6.09 | 588 | 3.54 |  |  |  |  |  |  | 
4 | H-Y[Aib]QGTFTSDFSK[αMeL]LDKK([AEEA-γGlu-C18 diacid])AQ[Aib]AFIEYLLEGGPSSGAPPPSGS-NH2 [Example 141] | 877 | 95.3 | 64.1 | 0.21 | 62.1 | 1.77 | 562 | 1.96 |  |  |  |  |  |  | 
5 | H-Y[Aib]QGTFTSDFS[Orn][αMeL]LDKK([AEEA-γGlu-C18 diacid])AQ[Aib]AFIEYLLE[Aib]G[4Pal]SSGAPPPSGE-NH2 [Example 248] | 241 | 67.4 | 39.5 | 0.0861 | 10.6 | 3.36 | 438 | 3.17 |  |  |  |  |  |  | 
6 | H-Y[Aib]QGTFTSDFSK[αMeL]LDKK([AEEA-γGlu-C20 diacid])AQ[Aib]AFIEYLLAGGPSSGEPPPGEG-NH2 [Example 31] | 1750 | 91.9 | 67.4 | 0.249 | 63.6 | 8.42 | 737 | 2.16 |  |  |  |  |  |  | 
7 | H-Y[Aib]QGTFTSDFS[Orn][αMeL]LDKK([AEEA-γGlu-C18 diacid])AQ[Aib]AFIEYLLEGGPSSGAPPPGGT-NH2 [Example 158] | 325 | 104 | 52.4 | 0.245 | 24.7 | 3.72 | 184 | 2.49 |  |  |  |  |  |  | 
8 | H-Y[Aib]QGTFTSDFSK[αMeL]LDKK([AEEA-γGlu-C18 diacid])AQ[Aib]AFIEYLLE[Aib]GPSSGEPPPSEG-NH2 [Example 46] | 393 | 41 | 58.1 | 0.0947 | 19.6 | 1.53 | 601 | 4.04 |  |  |  |  |  |  | 
9 | H-Y[Aib]QGTFTSDFS[Orn][αMeL]LDKK([AEEA-AEEA-γGlu-C20 diacid])AQ[Aib]AFIEYLLE[Aib]GPSSGAPPPGEG-NH2 [Example 70] |  |  | 61.3 |  |  |  |  |  | 717 | 60 | 0.102 | 27.4 | 6.04 | 620 | 2.71
10 | H-Y[Aib]QGTFTSDFSK[αMeL]LDKK([AEEA-γGlu-C20 diacid])AQ[Aib]AFIEYLLE[Aib]GPSSGAPPPGGS-NH2 [Example 43] | 850 | 58.2 | 68.3 | 0.101 | 29.6 | 2.71 | 539 | 1.55 |  |  |  |  |  |  | 
11 | H-Y[Aib]QGTFTSD[4Pal]SK[αMeL]LDKK([AEEA-γGlu-C18 diacid])AQ[Aib]AFIEYLIA[Aib]GESSGAPPPSGS-NH2 [Example 285] | 409 | 59.9 | 73.6 | 0.0652 | 8.22 | 2.32 | 365 | 2.87 |  |  |  |  |  |  | 
12 | H-Y[Aib]QGTFTSDFS[Orn][αMeL]LDKK([AEEA-AEEA-γGlu-C18 diacid])AQ[Aib]AFIEYLLE[Aib]GHSSGAPPPSGS-NH2 [Example 181] | 772 | 116 | 47.5 | 0.133 | 12.7 | 6.25 | 365 | 4.39 |  |  |  |  |  |  | 
13 | H-Y[Aib]QGTFTSDFS[Orn][αMeL]LDKK([AEEA-AEEA-γGlu-C20 diacid])AQ[Aib]AFIEYLLE[Aib]GPSSGAPPPSEG-NH2 [Example 71] | 2800 | 58.8 | 68.6 | 0.105 | 48.1 | 8.74 | 1010 | 3.12 |  |  |  |  |  |  | 
14 | H-Y[Aib]QGTFTSDFSK[αMeL]LDKK([AEEA-γGlu-C20 diacid])AQ[Aib]AFIEYLLAGGPSSGAPPPGGS-NH2 [Example 16] | 1660 | 37.8 | 74.6 | 0.217 | 35.9 | 8.84 | 281 | 1.54 |  |  |  |  |  |  | 
15 | H-Y[Aib]QGTFTSDFS[Orn][αMeL]LDKK([AEEA-AEEA-γGlu-C18 diacid])AQ[Aib]AFIEYLLE[Aib]GESSGAPPPSGS-NH2 [Example 179] | 1440 | 63.4 | 48.4 | 0.104 | 21.3 | 4.82 | 904 | 5.81 |  |  |  |  |  |  | 
16 | H-Y[Aib]QGTFTSDFS[Dap][αMeL]LDKK([AEEA-γGlu-C18 diacid])AQ[Aib]AFIEYLLEGGPSSGAPPPGGS-NH2 [Example 68] | 1160 | 95.2 | 33.8 | 0.46 | 85.1 | 8.55 | 612 | 3.07 |  |  |  |  |  |  | 
17 | H-Y[Aib]QGTFTSDFS[Orn][αMeL]LDKK([AEEA-γGlu-C18 diacid])AQ[αMe4Pal]AFIEYLIE[Aib]GESSGAPPPSGE-NH2 [Example 228] | 322 | 39 | 35 | 0.147 | 37.8 | 1.38 | 311 | 1.52 |  |  |  |  |  |  | 
18 | Y[Aib]QGTFTSDFS[Orn][αMeL]LDKK([AEEA-AEEA-γGlu-C18 diacid])AQ[Aib]AFIEYLLE[dA]GPSSGEPPPSEG-NH2 [Example 116] | 882 | 80.7 | 46.2 | 0.382 | 40.4 | 3.96 | 401 | 7.83 |  |  |  |  |  |  | 
